Data set [1] addresses T1, α-synuclein (α-syn) aggregates in PD brain homogenates (Homo sapiens, UniProt P37840).
T1 construct: Anterior cingulate cortex tissue from a Parkinson’s disease (PD) case; tissue Banner Sun Health Research Institute (Dr. Thomas Beach); host or cells: post-mortem human PD anterior cingulate cortex homogenate
Briefly: In vitro competition (Ki) assay vs [3H]asyn-44 in PD brain homogenates. Particulars: 1 nM [3H]asyn-44. The data set is classed as binding. The protocol:
Anterior cingulate cortex tissue from a Parkinson’s disease (PD) case was generously provided by Dr. Thomas Beach at the Banner Sun Health Research Institute in Arizona, USA. […] Preparation of the frozen blocks for binding assays followed previously established protocols.
The equilibrium inhibition constants (Ki) for the unlabelled compounds were measured against [^3H]asyn-44 using our previously reported procedure. For these assays, frozen aliquots of homogenized human brain tissue (stored at −80 °C) were used. Homogenates were prepared at 10 mg/mL in phosphate-buffered saline, then diluted with 50 mM Tris buffer (pH 7.0) to a working concentration of 1 mg/mL.
Unlabeled competitor compounds were initially dissolved in DMSO at 400 μM, then diluted with Tris buffer to 20 μM, resulting in a 5% DMSO concentration. A serial dilution series (ranging from 6 μM to 4 nM) was prepared in the same 5% DMSO/Tris buffer solution to maintain consistent solvent conditions throughout the assay.
To perform the binding assay, 50 μL of the appropriately diluted competitor solution was mixed with 50 μL of [^3H]asyn-44 (1 nM final concentration) and 800 μL of Tris buffer containing 20% ethanol and 0.1% bovine serum albumin (BSA). Then, 100 μL of the 1 mg/mL brain homogenate was added, bringing the final tissue concentration to 100 μg/mL. The reaction mixtures were incubated at room temperature for 60 min before filtration through Whatman GF/B glass fibre filters using a Brandel M-24R cell harvester (Gaithersburg, MD, USA). Filters were washed three times with 3 mL of Tris buffer containing 20% ethanol and 0.1% BSA.
After washing, retained radioactivity was measured using CytoScint-ES scintillation fluid following thorough vortexing. Specific binding was calculated by correcting for nonspecific binding (as described later), and the amount of bound radioligand was derived from the filter-associated radioactivity and the molar activity of the tritiated compound.

For data set [2], the target named is T1, α-synuclein (α-syn) aggregates in PD brain homogenates. The experiment in a line: Two point screening assay (30 nM and 300 nM) vs [3H]asyn-44 in human PD brain homogenates. Type of data set: binding. Particulars: for remaining activity at 0.03 µM: 30 nM competitor; for remaining activity at 0.3 µM: 300 nM competitor. As for the experimental part:
Screening assays for the test compounds were performed at two concentrations—30 nM and 300 nM—using unlabelled competitors in human PD brain homogenates against [^3H]asyn-44 as previously described. […] Each assay was conducted in triplicate for both concentrations to ensure reproducibility and statistical reliability.

A short description of data set [3]: Metabolic stability in human liver microsomes. The data set is classed as in vitro ADME. The note with it: for % disappearance at 5 minutes relative to time zero / % disappearance at 15 minutes relative to time zero / remaining at 5 min, 1 μM / % disappearance at 30 minutes relative to time zero / Clearance Category / remaining at 0.5 h, 1 μM: human liver microsomes; for remaining at 5 min, 1 μM / half-life at 1 μM / remaining at 0.5 h, 1 μM: pooled human liver microsomes; for remaining at 5 min, 1 μM / remaining at 0.5 h, 1 μM: pH 7.4; for Clearance Category: as per Cyprotex Website; for half-life at 1 μM: human, pH 7.4, human liver microsomes (h-MR); for % disappearance at 30 minutes relative to time zero / remaining at 0.5 h, 1 μM: 30 min. The protocol: Metabolic stability assays were conducted using pooled human liver microsomes (HLMs) to evaluate the rate of in vitro metabolic degradation of the test compound. Incubations were carried out in duplicate (n = 2) at a final compound concentration of 1 μM. The protein concentration of the microsomal suspension was adjusted to 0.5 mg/mL using phosphate buffer (100 mM, pH 7.4). Reactions were initiated by the addition of NADPH (final concentration 1 mM) and incubated at 37 °C. Aliquots were taken at four time points: 0, 5, 15, and 30 min. Each reaction was quenched with ice-cold acetonitrile containing internal standard, followed by centrifugation to pellet proteins. Supernatants were analyzed using a validated LC-MS/MS method to determine the concentration of the parent compound at each time point. […] Metabolic stability was assessed by calculating the percentage of the parent compound remaining at each time point. The elimination rate constant (k), half-life (t1/2), and intrinsic clearance (CLint) were derived from the natural log-transformed concentration vs. time data, assuming first-order kinetics.

Where “and” joins values, the source holds several entries; their conditions need not be identical. Identical values can stand only once.

Regarding `F[C@@H]1CCN(c2ccc(-n3ncc4sc(-c5cncs5)cc43)cn2)C1` [LMD-046], the inhibition constant (Ki) in data set [1] was 12 nM and 11.8 nM. In addition, in data set [2], the remaining activity at 0.03 µM came to 43% and the remaining activity at 0.3 µM amounted to 8%. The t1/2 entry in data set [3] (human liver microsomes (h-MR)) is reported as “unstable”. Further, in data set [3], the “% disappearance at 5 minutes relative to time zero” value is given as 96.6%; the “% disappearance at 15 minutes relative to time zero” value is reported as 97.9%; the fraction remaining at 5 min, 1 μM came out at 3.43%.
As for `F[C@@H]1CCN(c2cnc(-c3ccc4scc(-c5cccnc5)c4n3)cn2)C1` [LMD-045], the Ki in data set [1] is 13 nM and 13.3 nM. In data set [2], this molecule returned a remaining activity at 0.03 µM of 36% and a remaining activity at 0.3 µM of 13%. Besides, in data set [3], the “% disappearance at 5 minutes relative to time zero” value amounted to 34.7%, the “% disappearance at 15 minutes relative to time zero” value came to 65.6%, the “% disappearance at 30 minutes relative to time zero” value worked out at 86.5% and the “Clearance Category” value is recorded as “High”. In data set [3], the half-life at 1 μM was 10.5 min; the amount remaining at 5 min, 1 μM came to 65.3%; the fraction remaining at 0.5 h, 1 μM came out at 13.5%.
Take `F[C@@H]1CCN(c2cnc(-c3csc4ccc(-c5cccnc5)nc34)cn2)C1` [LMD-044]: the Ki in data set [1] is 9.1 nM. In addition, in data set [2], the remaining activity at 0.03 µM worked out at 38% and the remaining activity at 0.3 µM was 4%. In data set [3], the “% disappearance at 5 minutes relative to time zero” value was found to be 54.3%, the “% disappearance at 15 minutes relative to time zero” value was found to be 88.3%, the “% disappearance at 30 minutes relative to time zero” value stood at 96.3% and the “Clearance Category” value is reported as “High”. In data set [3], this molecule showed a half-life at 1 μM of 6.37 min; a fraction remaining at 5 min, 1 μM of 45.7%; an amount remaining at 0.5 h, 1 μM of 3.71%.
`F[C@@H]1CCN(c2ccc(-n3cc4sc(-c5cccnc5)cc4n3)cn2)C1` [LMD-032]: the Ki in data set [1] is 50 nM. In data set [2], this molecule registered a remaining activity at 0.03 µM of 38% and a remaining activity at 0.3 µM of 25%. Further, in data set [3], the “% disappearance at 5 minutes relative to time zero” value is recorded as 46.7%, the “% disappearance at 15 minutes relative to time zero” value turned out to be 79.2%, the “% disappearance at 30 minutes relative to time zero” value is 95.0% and the “Clearance Category” value was “High”. Also, in data set [3], the half-life at 1 μM was determined as 7.05 min; the amount remaining at 5 min, 1 μM came out at 53.3%; the amount remaining at 0.5 h, 1 μM stood at 5.02%.
For the molecule `F[C@@H]1CCN(c2cc(-n3cc4sc(-c5cccnc5)cc4n3)ncn2)C1` [LMD-052], the inhibition constant Ki in data set [1] is 6 nM. In data set [2], this molecule displayed a remaining activity at 0.03 µM of 27% and a remaining activity at 0.3 µM of 2%. Further, in data set [3], the “% disappearance at 5 minutes relative to time zero” value turned out to be 60.3%, the “% disappearance at 15 minutes relative to time zero” value was 82.8%, the “% disappearance at 30 minutes relative to time zero” value is given as 94.4% and the “Clearance Category” value is “High”. In data set [3], this molecule yielded a half-life at 1 μM of 7.6 min; a fraction remaining at 5 min, 1 μM of 39.7%; an amount remaining at 0.5 h, 1 μM of 5.61%.
As to `F[C@@H]1CCN(c2ccc(-c3ccc4sc(-c5cncs5)cc4n3)cn2)C1` [LMD-006], the inhibition constant (Ki) in data set [1] was found to be 12 nM. In data set [2], this molecule displayed a remaining activity at 0.03 µM of 53% and a remaining activity at 0.3 µM of 2%. In addition, in data set [3], the “% disappearance at 5 minutes relative to time zero” value amounted to 60.2%, the “% disappearance at 15 minutes relative to time zero” value is given as 88.1%, the “% disappearance at 30 minutes relative to time zero” value was determined as 95.7% and the “Clearance Category” value is recorded as “High”. Also, in data set [3], the half-life at 1 μM stood at 6.81 min; the amount remaining at 5 min, 1 μM amounted to 39.6%; the share remaining at 0.5 h, 1 μM turned out to be 4.32%.
As to `FC1CCN(c2cnc(-n3cc4sc(-c5cccnc5)cc4n3)cn2)CC1` [LMD-051], the affinity in data set [1] corresponds to a Ki of 9.2 nM. In data set [2], the remaining activity at 0.03 µM is 38% and the remaining activity at 0.3 µM is 4%. For the same molecule, in data set [3], the “% disappearance at 5 minutes relative to time zero” value was 24.2%, the “% disappearance at 15 minutes relative to time zero” value turned out to be 64.3%, the “% disappearance at 30 minutes relative to time zero” value turned out to be 69.7% and the “Clearance Category” value is “High”. Also, in data set [3], the half-life at 1 μM was found to be 17 min; the fraction remaining at 5 min, 1 μM was 75.8%; the amount remaining at 0.5 h, 1 μM came to 30.3%.

The values above are taken from publication PMC12523303, “Multi-Fused S,N-Heterocyclic Compounds for Targeting α-Synuclein Aggregates” (Cells, 2025).
